Reference: patent US20230263822A1, “MODULATION OF FACTOR 11 EXPRESSION” (Ionis Pharmaceuticals, Inc., priority 2008, published 2023)
Strand notation (5' to 3'): a small letter for the sugar, then the base; units joined by * are phosphorothioate-linked, units joined directly phosphodiester-linked; [ ] holds rarer units or linkages, { } end groups; capitals alone tell only the bases. e = 2'-O-(2-methoxyethyl) (MOE); [5mC] = 5-methylcytosine; d = 2'-deoxy (DNA)

Tested on: human Factor 11 mRNA
Assay: Antisense inhibition of human Factor 11 in HepG2 cells by microwalk gapmers, lipofectin, 75 nM (Example 3)
Assay type: cell-based
Method: These gapmers were designed by creating gapmers shifted slightly upstream and downstream (i.e. “microwalk”) of the original gapmers from Table 3. Gapmers were also created with various motifs, e.g. 5-10-5 MOE, 3-14-3 MOE, and 2-13-5 MOE. These gapmers were tested in vitro. Cultured HepG2 cells at a density of 10,000 cells per well were transfected using lipofectin reagent with 75 nM antisense oligonucleotide. After a treatment period of approximately 24 hours, RNA was isolated from the cells and Factor 11 mRNA levels were measured by quantitative real-time PCR. Factor 11 mRNA levels were adjusted according to total RNA content, as measured by RIBOGREEN. Results are presented as percent inhibition of Factor 11, relative to untreated control cells.
The chimeric antisense oligonucleotides in Table 4 were designed as 5-10-5 MOE, 3-14-3 MOE, and 2-13-5 MOE gapmers. The first listed gapmers in Table 4 are the original gapmers (see Table 3) from which the remaining gapmers were designed via microwalk and are designated by an asterisk. The 5-10-5 gapmers are 20 nucleotides in length, wherein the central gap segment is comprised of 10 2′-deoxynucleotides and is flanked on both sides (in the 5′ and 3′ directions) by wings comprising 5 nucleotides each. The 3-14-3 gapmers are 20 nucleotides in length, wherein the central gap segment is comprised of 14 2′-deoxynucleotides and is flanked on both sides (in the 5′ and 3′ directions) by wings comprising 3 nucleotides each. The 2-13-5 gapmers are 20 nucleotides in length, wherein the central gap segment is comprised of 13 2′-deoxynucleotides. The central gap is flanked on the 5′ end with a wing comprising 2 nucleotides and on the 3′ end with a wing comprising 5 nucleotides. For each of the motifs (5-10-5, 3-14-3, and 2-13-5), each nucleotide in the 5′ wing segment and each nucleotide in the 3′ wing segment has a 2′-MOE modification. The internucleoside linkages throughout each gapmer are phosphorothioate (P=S) linkages. All cytidine residues throughout each gapmer are 5-methyl cytidines. “Target start site” indicates the 5′-most nucleotide to which the gapmer is targeted. “Target stop site” indicates the 3′-most nucleotide to which the gapmer is targeted. Each gapmer listed in Table 4 is targeted to SEQ ID NO: 1 (GENBANK Accession No. NM_000128.3).

[1] = HepG2, lipofectin, ~24 h, gapmers targeted to nucleobases 656 to 704 of SEQ ID NO: 1
[2] = HepG2 cells, lipofectin, gapmers targeted to nucleobases 738 to 762 of SEQ ID NO: 1
[3] = HepG2 cells, lipofectin, gapmers targeted to nucleobases 1018 to 1042 of SEQ ID NO: 1
[4] = HepG2 cells, lipofectin, gapmers targeted to nucleobases 1062 to 1091 of SEQ ID NO: 1

416873 (antisense eA*e[5mC]*eA*dT*dA*dA*dA*dT*dG*dT*d[5mC]*dT*dT*dT*dG*dT*dT*eG*e[5mC]*eA) [compound 416873]
% inhibition [1]: 51%

416874 (antisense e[5mC]*eA*e[5mC]*dA*dT*dA*dA*dA*dT*dG*dT*d[5mC]*dT*dT*dT*dG*dT*eT*eG*e[5mC]) [compound 416874]
% inhibition [1]: 49%

416875 (antisense e[5mC]*e[5mC]*eA*d[5mC]*dA*dT*dA*dA*dA*dT*dG*dT*d[5mC]*dT*dT*dT*dG*eT*eT*eG) [compound 416875]
% inhibition [1]: 75%

416876 (antisense eT*e[5mC]*e[5mC]*dA*d[5mC]*dA*dT*dA*dA*dA*dT*dG*dT*d[5mC]*dT*dT*dT*eG*eT*eT) [compound 416876]
% inhibition [1]: 37%

416877 (antisense eG*eT*e[5mC]*d[5mC]*dA*d[5mC]*dA*dT*dA*dA*dA*dT*dG*dT*d[5mC]*dT*dT*eT*eG*eT) [compound 416877]
% inhibition [1]: 51%

416879 (antisense eA*eG*eG*dT*d[5mC]*d[5mC]*dA*d[5mC]*dA*dT*dA*dA*dA*dT*dG*dT*d[5mC]*eT*eT*eT) [compound 416879]
% inhibition [1]: 92%

416880 (antisense eT*eA*eG*dG*dT*d[5mC]*d[5mC]*dA*d[5mC]*dA*dT*dA*dA*dA*dT*dG*dT*e[5mC]*eT*eT) [compound 416880]
% inhibition [1]: 66%

416881 (antisense e[5mC]*eT*eA*dG*dG*dT*d[5mC]*d[5mC]*dA*d[5mC]*dA*dT*dA*dA*dA*dT*dG*eT*e[5mC]*eT) [compound 416881]
% inhibition [1]: 81%

416882 (antisense eT*e[5mC]*eT*dA*dG*dG*dT*d[5mC]*d[5mC]*dA*d[5mC]*dA*dT*dA*dA*dA*dT*eG*eT*e[5mC]) [compound 416882]
% inhibition [1]: 60%

416883 (antisense eG*eT*e[5mC]*dT*dA*dG*dG*dT*d[5mC]*d[5mC]*dA*d[5mC]*dA*dT*dA*dA*dA*eT*eG*eT) [compound 416883]
% inhibition [1]: 82%

416884 (antisense eT*eG*eT*d[5mC]*dT*dA*dG*dG*dT*d[5mC]*d[5mC]*dA*d[5mC]*dA*dT*dA*dA*eA*eT*eG) [compound 416884]
% inhibition [1]: 69%

416885 (antisense eA*eT*eG*dT*d[5mC]*dT*dA*dG*dG*dT*d[5mC]*d[5mC]*dA*d[5mC]*dA*dT*dA*eA*eA*eT) [compound 416885]
% inhibition [1]: 67%

416886 (antisense e[5mC]*eA*eT*dG*dT*d[5mC]*dT*dA*dG*dG*dT*d[5mC]*d[5mC]*dA*d[5mC]*dA*dT*eA*eA*eA) [compound 416886]
% inhibition [1]: 74%

416888 (antisense eT*eT*e[5mC]*dA*dT*dG*dT*d[5mC]*dT*dA*dG*dG*dT*d[5mC]*d[5mC]*dA*d[5mC]*eA*eT*eA) [compound 416888]
% inhibition [1]: 76%

416889 (antisense e[5mC]*eT*eT*d[5mC]*dA*dT*dG*dT*d[5mC]*dT*dA*dG*dG*dT*d[5mC]*d[5mC]*dA*e[5mC]*eA*eT) [compound 416889]
% inhibition [1]: 60%

416890 (antisense e[5mC]*e[5mC]*eT*dT*d[5mC]*dA*dT*dG*dT*d[5mC]*dT*dA*dG*dG*dT*d[5mC]*d[5mC]*eA*e[5mC]*eA) [compound 416890]
% inhibition [1]: 87%

416891 (antisense e[5mC]*e[5mC]*e[5mC]*dT*dT*d[5mC]*dA*dT*dG*dT*d[5mC]*dT*dA*dG*dG*dT*d[5mC]*e[5mC]*eA*e[5mC]) [compound 416891]
% inhibition [1]: 81%

416893 (antisense eT*eG*e[5mC]*d[5mC]*d[5mC]*dT*dT*d[5mC]*dA*dT*dG*dT*d[5mC]*dT*dA*dG*dG*eT*e[5mC]*e[5mC]) [compound 416893]
% inhibition [1]: 90%

416894 (antisense eA*eT*eG*d[5mC]*d[5mC]*d[5mC]*dT*dT*d[5mC]*dA*dT*dG*dT*d[5mC]*dT*dA*dG*eG*eT*e[5mC]) [compound 416894]
% inhibition [1]: 85%

416897 (antisense eT*eT*eT*dA*dT*dG*d[5mC]*d[5mC]*d[5mC]*dT*dT*d[5mC]*dA*dT*dG*dT*d[5mC]*eT*eA*eG) [compound 416897]
% inhibition [1]: 66%

416898 (antisense e[5mC]*e[5mC]*eG*dT*dG*d[5mC]*dA*dT*d[5mC]*dT*dT*dT*d[5mC]*dT*dT*dG*dG*e[5mC]*eA*eT) [compound 416898]
% inhibition [2]: 88%

416899 (antisense eT*e[5mC]*e[5mC]*dG*dT*dG*d[5mC]*dA*dT*d[5mC]*dT*dT*dT*d[5mC]*dT*dT*dG*eG*e[5mC]*eA) [compound 416899]
% inhibition [2]: 86%

416900 (antisense eA*eT*e[5mC]*d[5mC]*dG*dT*dG*d[5mC]*dA*dT*d[5mC]*dT*dT*dT*d[5mC]*dT*dT*eG*eG*e[5mC]) [compound 416900]
% inhibition [2]: 90%

416901 (antisense e[5mC]*eA*eT*d[5mC]*d[5mC]*dG*dT*dG*d[5mC]*dA*dT*d[5mC]*dT*dT*dT*d[5mC]*dT*eT*eG*eG) [compound 416901]
% inhibition [2]: 65%

416902 (antisense eT*e[5mC]*eA*dT*d[5mC]*d[5mC]*dG*dT*dG*d[5mC]*dA*dT*d[5mC]*dT*dT*dT*d[5mC]*eT*eT*eG) [compound 416902]
% inhibition [2]: 46%

416903 (antisense eG*eT*e[5mC]*dA*dT*d[5mC]*d[5mC]*dG*dT*dG*d[5mC]*dA*dT*d[5mC]*dT*dT*dT*e[5mC]*eT*eT) [compound 416903]
% inhibition [2]: 88%

416904 (antisense e[5mC]*e[5mC]*eG*dG*dG*dA*dT*dG*dA*dT*dG*dA*dG*dT*dG*d[5mC]*dA*eG*eA*eT) [compound 416904]
% inhibition [3]: 90%

416905 (antisense eA*e[5mC]*e[5mC]*dG*dG*dG*dA*dT*dG*dA*dT*dG*dA*dG*dT*dG*d[5mC]*eA*eG*eA) [compound 416905]
% inhibition [3]: 85%

416906 (antisense eA*eA*e[5mC]*d[5mC]*dG*dG*dG*dA*dT*dG*dA*dT*dG*dA*dG*dT*dG*e[5mC]*eA*eG) [compound 416906]
% inhibition [3]: 88%

416907 (antisense e[5mC]*eA*eA*d[5mC]*d[5mC]*dG*dG*dG*dA*dT*dG*dA*dT*dG*dA*dG*dT*eG*e[5mC]*eA) [compound 416907]
% inhibition [3]: 90%

416909 (antisense eA*eT*eT*d[5mC]*dT*dT*dT*dG*dG*dG*d[5mC]*d[5mC]*dA*dT*dT*d[5mC]*d[5mC]*eT*eG*eG) [compound 416909]
% inhibition [4]: 78%

416910 (antisense eG*eA*eT*dT*d[5mC]*dT*dT*dT*dG*dG*dG*d[5mC]*d[5mC]*dA*dT*dT*d[5mC]*e[5mC]*eT*eG) [compound 416910]
% inhibition [4]: 90%

416911 (antisense eA*eG*eA*dT*dT*d[5mC]*dT*dT*dT*dG*dG*dG*d[5mC]*d[5mC]*dA*dT*dT*e[5mC]*e[5mC]*eT) [compound 416911]
% inhibition [4]: 90%

416912 (antisense eG*eA*eG*dA*dT*dT*d[5mC]*dT*dT*dT*dG*dG*dG*d[5mC]*d[5mC]*dA*dT*eT*e[5mC]*e[5mC]) [compound 416912]
% inhibition [4]: 92%

416913 (antisense eT*eG*eA*dG*dA*dT*dT*d[5mC]*dT*dT*dT*dG*dG*dG*d[5mC]*d[5mC]*dA*eT*eT*e[5mC]) [compound 416913]
% inhibition [4]: 93%

416914 (antisense eT*eT*eG*dA*dG*dA*dT*dT*d[5mC]*dT*dT*dT*dG*dG*dG*d[5mC]*d[5mC]*eA*eT*eT) [compound 416914]
% inhibition [4]: 87%

416915 (antisense eT*eT*eT*dG*dA*dG*dA*dT*dT*d[5mC]*dT*dT*dT*dG*dG*dG*d[5mC]*e[5mC]*eA*eT) [compound 416915]
% inhibition [4]: 79%

416916 (antisense e[5mC]*eT*eT*dT*dG*dA*dG*dA*dT*dT*d[5mC]*dT*dT*dT*dG*dG*dG*e[5mC]*e[5mC]*eA) [compound 416916]
% inhibition [4]: 91%

416917 (antisense eT*e[5mC]*eT*dT*dT*dG*dA*dG*dA*dT*dT*d[5mC]*dT*dT*dT*dG*dG*eG*e[5mC]*e[5mC]) [compound 416917]
% inhibition [4]: 92%

416918 (antisense eT*eT*e[5mC]*dT*dT*dT*dG*dA*dG*dA*dT*dT*d[5mC]*dT*dT*dT*dG*eG*eG*e[5mC]) [compound 416918]
% inhibition [4]: 63%

416919 (antisense eT*eT*eT*d[5mC]*dT*dT*dT*dG*dA*dG*dA*dT*dT*d[5mC]*dT*dT*dT*eG*eG*eG) [compound 416919]
% inhibition [4]: 27%
